# Ends that are not written are not given here.
# System: kidneys
# Conditions: unlabeled competitor 100 or 2000 nmol co-injected with 2 nmol SEQ ID NO: 4-AF647; 1 hour
sequence,measurement,value
KKEEEKKEEEKKEEEKK [SEQ ID NO: 571],competition with uptake of the peptide of SEQ ID NO: 4 in kidneys,failed to compete

# — US11331393B2, “Renal-homing peptide conjugates and methods of use thereof” (BLAZE BIOSCIENCE, INC., priority 2017, dated 2022)
